Source: patent US20240215575A1, “METHOD OF PREPARING 1-(2,2-DIMETHYLPROPYL)-CYCLOPROPENE AS SPRAYABLE ETHYLENE ANTAGONIST IN PLANTS AND USES THEREOF” (KYUNG SANG NAM DO, priority 2022, published 2024)
Values after ≈ are worked out from the molar mass of the structure shown. Read-outs that look alike come from different tables or passages of the source.

Columns and labels:
[1] = Storage stability of 1-DCP and its cyclodextrin inclusion complex; type: physicochemical
[2] = system: Taechu sweet persimmon fruits; assay: 1-DCP spray treatment of Taechu sweet persimmon fruits on the tree, flesh hardness during room temperature storage; type: in vivo, sweet persimmon (Taechu variety)
Procedure: In particular, four sweet persimmon trees of the Taechu variety were selected on October 7th at the Sweet Persimmon Research Institute Orchard located in Jinyeong-eup, Gyeongsangnam-do, and the fruits growing on two of these trees (control group) were treated with a solution containing 0.025% wetting agent (Carba, Farmhannong), and the fruits of the other two trees (treatment group) were sprayed with an aqueous emulsion containing 1 mM 1-DCP and 0.025% wetting agent using a manual sprayer. Fruits in each treatment group were harvested on October 24, and measured/observed for changes in flesh hardness after 7 days and 14 days while being stored at room temperature.

banana fruits = assay: 1-DCP immersion treatment of immature banana fruit followed by ethylene exposure; type: in vivo
Procedure: In particular, immature banana fruits were harvested from a banana farm in Sancheong-gun, Gyeongsangnam-do and transported to the laboratory, and on the same day, the fruits were separated into two groups: the fruits (16) in Group A (control group) were immersed in a 0.025% wetting agent (Carba, FarmHannong) solution not containing 1-DCP, and the fruits (16) in Group B (treatment group) were immersed in a 1 mM 1-DCP aqueous emulsion for 1 second, respectively, to wet the surface with the solution, and then dried at room temperature. Subsequently the next day, half of the fruits (8 each) from groups A and B were divided into two 40 L containers, sealed, and then injected with ethylene gas, thus exposing the fruits to 10 ppm of ethylene for 24 hours. The treated banana fruits were then stored at room temperature and observed for the degree of ripening after 7 days and after 14 days.

[3] = cited from earlier work

For CC(C)(C)CC1=CC1 [1-DCP, 1-(2,2-dimethylpropyl)-cyclopropene], the “storage stability (polymerization)” value ([1]; refrigerated conditions) was “polymerization occurred within a few days”, the storage stability ([1]; room temperature) was “storage at room temperature for more than one day was impossible” and the storage stability ([1]; stored in a −40° C. freezer) was “several months or more”. The flesh hardness ([2]; spray of 1 mM 1-DCP aqueous emulsion with 0.025% wetting agent, after 7 days of storage at room temperature) was 19.5 N, the “inhibition of ethylene action” value ([2]; spray treatment, 1 mM or less, Taechu fruits) was “effectively inhibits ethylene action” and the degree of ripening (banana fruits; 1 mM 1-DCP aqueous emulsion, immersion for 1 second, 10 ppm ethylene for 24 hours, room temperature storage, observed after 7 and 14 days) was “maintained a more immature state than the fruits of Group A up to 14 days”. The “inhibition of ethylene action” value (banana fruits; immersion treatment, 1 mM or less, banana fruits) was “effectively inhibits ethylene action”.

For OC[C@H]1O[C@@H]2O[C@H]3[C@H](O)[C@@H](O)[C@@H](O[C@H]4[C@H](O)[C@@H](O)[C@@H](O[C@H]5[C@H](O)[C@@H](O)[C@@H](O[C@H]6[C@H](O)[C@@H](O)[C@@H](O[C@H]7[C@H](O)[C@@H](O)[C@@H](O[C@H]1[C@H](O)[C@H]2O)O[C@@H]7CO)O[C@@H]6CO)O[C@@H]5CO)O[C@@H]4CO)O[C@@H]3CO [a-cyclodextrin, α-cyclodextrin], the solubility in water [3] is listed as 140 mg/mL (≈ 144 mM).

For OC[C@H]1O[C@@H]2O[C@H]3[C@H](O)[C@@H](O)[C@@H](O[C@H]4[C@H](O)[C@@H](O)[C@@H](O[C@H]5[C@H](O)[C@@H](O)[C@@H](O[C@H]6[C@H](O)[C@@H](O)[C@@H](O[C@H]7[C@H](O)[C@@H](O)[C@@H](O[C@H]8[C@H](O)[C@@H](O)[C@@H](O[C@H]1[C@H](O)[C@H]2O)O[C@@H]8CO)O[C@@H]7CO)O[C@@H]6CO)O[C@@H]5CO)O[C@@H]4CO)O[C@@H]3CO [β-cyclodextrin], the solubility in water ([3]; compared to the alpha type) is given as “extremely low solubility in water”.
